According to ChEMBL document CHEMBL1129117 (Bioorg Med Chem Lett, 1996):

Key:
[1] = target: T1, Angiotensin-converting enzyme (Rattus norvegicus, UniProt P47820); assay: Compound was measured for the inhibition of Angiotensin I converting enzyme
T1 sequence (P47820 whole entry): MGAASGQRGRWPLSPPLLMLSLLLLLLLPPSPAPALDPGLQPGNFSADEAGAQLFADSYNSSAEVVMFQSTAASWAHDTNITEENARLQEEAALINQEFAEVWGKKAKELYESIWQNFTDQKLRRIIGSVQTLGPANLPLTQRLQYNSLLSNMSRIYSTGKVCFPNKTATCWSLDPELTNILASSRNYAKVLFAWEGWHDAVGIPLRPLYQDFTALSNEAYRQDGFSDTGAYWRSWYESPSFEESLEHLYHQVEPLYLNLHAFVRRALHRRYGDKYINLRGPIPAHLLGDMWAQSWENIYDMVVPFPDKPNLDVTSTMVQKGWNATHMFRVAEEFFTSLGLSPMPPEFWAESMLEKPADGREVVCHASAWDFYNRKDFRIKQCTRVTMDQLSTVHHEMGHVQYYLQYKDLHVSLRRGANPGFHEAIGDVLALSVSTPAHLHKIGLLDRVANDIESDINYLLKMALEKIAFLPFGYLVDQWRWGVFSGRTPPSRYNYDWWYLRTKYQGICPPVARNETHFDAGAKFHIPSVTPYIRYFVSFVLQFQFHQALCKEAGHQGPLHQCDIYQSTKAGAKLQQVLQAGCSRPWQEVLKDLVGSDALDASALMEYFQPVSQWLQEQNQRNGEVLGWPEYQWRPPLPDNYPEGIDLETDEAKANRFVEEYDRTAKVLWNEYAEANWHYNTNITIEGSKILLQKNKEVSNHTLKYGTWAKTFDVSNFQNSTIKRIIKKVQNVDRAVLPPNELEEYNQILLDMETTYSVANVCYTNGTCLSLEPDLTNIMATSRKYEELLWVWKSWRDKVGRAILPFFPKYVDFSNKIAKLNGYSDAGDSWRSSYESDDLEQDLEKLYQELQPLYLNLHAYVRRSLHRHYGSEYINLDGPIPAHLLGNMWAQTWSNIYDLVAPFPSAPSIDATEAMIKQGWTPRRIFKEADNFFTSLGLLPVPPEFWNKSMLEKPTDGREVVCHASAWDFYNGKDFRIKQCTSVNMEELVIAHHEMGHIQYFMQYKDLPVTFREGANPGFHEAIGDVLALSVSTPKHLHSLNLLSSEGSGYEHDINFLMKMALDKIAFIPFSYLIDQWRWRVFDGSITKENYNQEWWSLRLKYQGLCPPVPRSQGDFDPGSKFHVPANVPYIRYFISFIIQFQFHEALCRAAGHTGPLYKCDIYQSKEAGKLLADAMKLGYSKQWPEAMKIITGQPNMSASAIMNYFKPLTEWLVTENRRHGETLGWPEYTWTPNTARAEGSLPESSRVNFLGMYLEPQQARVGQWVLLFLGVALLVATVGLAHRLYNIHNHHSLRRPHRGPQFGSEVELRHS

[2] = target: T2, Neprilysin (Rattus norvegicus, UniProt P07861); assay: Compound was measured for the inhibition of neutral endopeptidase 24.11(NEP).
T2 sequence (P07861 whole entry): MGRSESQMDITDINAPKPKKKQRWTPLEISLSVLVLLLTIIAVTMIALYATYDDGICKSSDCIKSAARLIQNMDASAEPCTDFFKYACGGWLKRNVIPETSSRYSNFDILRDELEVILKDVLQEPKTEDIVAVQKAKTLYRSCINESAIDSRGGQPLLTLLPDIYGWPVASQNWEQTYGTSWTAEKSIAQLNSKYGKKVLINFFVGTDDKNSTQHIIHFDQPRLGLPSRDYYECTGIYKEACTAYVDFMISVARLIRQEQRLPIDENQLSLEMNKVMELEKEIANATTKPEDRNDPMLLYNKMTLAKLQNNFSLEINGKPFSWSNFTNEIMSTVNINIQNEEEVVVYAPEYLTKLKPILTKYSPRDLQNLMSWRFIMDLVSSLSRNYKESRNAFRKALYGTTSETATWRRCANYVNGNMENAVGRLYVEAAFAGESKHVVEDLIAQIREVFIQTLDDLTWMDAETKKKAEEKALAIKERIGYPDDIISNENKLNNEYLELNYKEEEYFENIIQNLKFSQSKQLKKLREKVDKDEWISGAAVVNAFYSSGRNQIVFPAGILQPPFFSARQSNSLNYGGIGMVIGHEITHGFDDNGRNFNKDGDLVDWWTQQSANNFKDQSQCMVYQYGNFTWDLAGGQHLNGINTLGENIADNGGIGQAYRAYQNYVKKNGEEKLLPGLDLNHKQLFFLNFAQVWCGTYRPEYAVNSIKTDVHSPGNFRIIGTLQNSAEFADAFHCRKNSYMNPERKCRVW

| IC50 [1] [nM] | IC50 [2] [nM] | SMILES |
| --- | --- | --- |
| 1.5 | 55 | O=C(N[C@@H](Cc1ccccc1)P(=O)(O)CC1(C(=O)N[C@@H](Cc2c[nH]c3ccccc23)C(=O)O)CCCC1)c1ccc([N+](=O)[O-])cc1 |
| 2.5 | 90 | CS(=O)(=O)N[C@@H](CCCCN)C(=O)N[C@@H](Cc1ccccc1)P(=O)(O)CC1(C(=O)N[C@@H](Cc2c[nH]c3ccccc23)C(=O)O)CCCC1 |
